The term IC50 denotes the concentration that inhibits the measured activity by half. For orientation: melting point means the temperature of the solid-liquid transition.

The text below walks through data of patent US11492362B1, “Pyridine derivatives for the treatment of hyperproliferative diseases” (King Abdulaziz University, priority 2022, dated 2022).

Data set [1] has as its system HL-60 (leukemia) cell lines. Nature of the data set: In vitro cytotoxicity, MTT assay. It is filed as cell-based. Particulars: Homo sapiens, 72 h; HL-60, MTT, 3 days. The procedure: Cells suspended in medium (2×10^4 cells/mL) were plated in 96-well culture plates and incubated at 37° C. in a 5% CO2 incubator. After 12 h, the test sample (2 μL) was added to the cells (2×10^4) in 96-well plates and cultured at 37° C. for 3 days. The cultured cells were mixed with 20 μL of MTT solution and incubated for 4 h at 37° C. The supernatant was carefully removed from each well and 100 μL of DMSO was added to each well to dissolve the formazan crystals which were formed by the cellular reduction of MTT. After mixing with a mechanical plate mixer, the absorbance of each well was measured by a microplate reader using a test wavelength of 570 nm. The results were expressed as the IC50 (μM), which induces a 50% inhibition of cell growth of the treated cells when compared to the growth of control cells. Each experiment was performed at least 3 times. There was a good reproducibility between the replicate wells with standard error [46].
In vitro cytotoxicity of the synthesized compounds 4, 6, and 7 was determined using the MTT assay against HL-60 (leukemia) cell lines. Doxorubicin (Doxo) one of the most efficient anticancer agentd was utilized as a reference compound in this study.
(In general: Formazan colour is commonly taken as a measure of viable cells.)

The next data set has as its system Leukemia HL-60 cell line. Briefly: Cell cycle analysis, PI staining and DNA flow cytometry. It is filed as cell-based, human. The settings on record: HL-60, compound at its IC50 concentration. The method, then: (§1) For cell cycle analysis, cell pellets were fixed with 70% ethanol on ice for 15 min and collected again. The collected pellets were incubated with propidium iodide (PI) staining solution ([…], 0.1 mg/mL RNaseA, 0.05% Triton X-100) at room temperature for 1 hour and analyzed by Gallios® flow cytometer (Beckman Coulter, Brea, Calif., USA). Apoptosis detection was performed by FITC Annexin V/PI commercial kit (Becton Dickenson, Franklin Lakes, N.J., USA) following the manufacturer's protocol. The samples were analyzed by fluorescence-activated cell sorting (FACS) with a Gallios® flow cytometer (Beckman Coulter, Brea, Calif., USA) within 1 h after staining. Data were analyzed using Kaluzav® 1.2 (Beckman Coulter).
Cell cycle analysis was assessed in Leukemia HL-60 cell line after staining the nuclei with propidium iodide (PI) followed by DNA flow cytometry analysis.
For orientation: In flow cytometry, cells or beads pass a laser one at a time.

The test system of another data set is Leukemia HL-60 cells. Nature of the data set: Annexin V-FITC/PI apoptosis detection. The settings on record: HL-60, Annexin V-FITC/PI. It is filed as cell-based, human. The procedure:
as §1
Moreover, compound 4 increased the percentage of late apoptotic cells by 43.07-more than untreated control.

Data set [2] relates to caspase 3/7 in Leukemia HL-60 cells. Briefly: Activated caspase 3/7 assay. In kind it is cell-based, human. Particulars: HL-60, IC50 concentration, 24 h, flow cytometry; untreated control 0.54%. The method, then:
Activities of caspases-3 and -7 were measured using DRG Caspase-3 (human) ELISA (EIA-4860) kit (DRG International Inc., USA), Invitrogen. Caspase-7 (Active) (human) ELISA kit, Catalog #KHO1091 (96 tests) (Invitrogen Corporation, USA) according to the manufacturer's instructions.
The activation of caspase 3/7 was determined in compound 4 treated Leukemia HL-60 cells at IC50 concentration using green flow cytometry assay for 24 h.

In another data set the test system is HL-60. Briefly: Confluency analysis. It is filed as cell-based, human. Particulars: HL-60, 50 μg/mL.

≈ marks a conversion by molar mass, not a printed value.

With `CN(C)/C=C/C(=O)c1cccc(C(=O)/C=C\Nc2sc3c(c2C#N)CCCC3)n1` [Compound 6, 2-(((Z)-3-(6-((E)-3-(dimethylamino)acryloyl)pyridin-2-yl)-3-oxoprop-1-en-1-yl)amino)-4,5,6,7-tetrahydrobenzo[b]thiophene-3-carbonitrile], the IC50 in data set [1] worked out at 3.66 ± 0.11 µg/mL (≈ 9 µM).

On to `COc1cccc2c1C(=O)c1c(O)c3c(c(O)c1C2=O)C[C@@](O)(C(=O)CO)C[C@@H]3O[C@H]1C[C@H](N)[C@H](O)[C@H](C)O1` [Dox, Doxorubicin, reference compound], for which the midpoint of inhibition in data set [1], the IC50, lay at 2.2 ± 0.08 µg/mL (≈ 4.05 µM).

Compound `CN(C)C=CC(=O)c1cccc(C(=O)C=CN(C)C)n1` [Compound 2, 2,6-Bis(3-dimethylamino-1-oxoprop-2-en-yl)pyridine] had a melting point of 236.4 to 237.2 °C.

As for `N#Cc1c(N/C=C\C(=O)c2cccc(C(=O)/C=C\Nc3sc4c(c3C#N)CCCC4)n2)sc2c1CCCC2` [Compound 7, 2,2′-(((1Z,1′Z)-pyridine-2,6-diylbis(3-oxoprop-1-ene-3,1-diyl))bis(azanediyl))bis(4,5,6,7-tetrahydrobenzo[b]thiophene-3-carbonitrile)], the IC50 in data set [1] came out at 28.5 ± 1.56 µg/mL (≈ 52.9 µM).

The compound `c1cc(-c2ccn3cnnc3n2)nc(-c2ccn3cnnc3n2)c1` [Compound 4, 2,6-bis([1,2,4]triazolo[4,3-a]pyrimidin-7-yl)pyridine] yielded an IC50 in data set [1] of 3.28 ± 0.13 µg/mL (≈ 10.4 µM). Further, the “percentage of cells at pre-G1 peak” value in the data set with Leukemia HL-60 cell line (control 1.42%) was 19.32%. Also, the “cell percentage in the G2/M phase” value in the data set with Leukemia HL-60 cell line (untreated control 16.80%) amounted to 51.84%. Also, in the data set on Leukemia HL-60 cells, the “cell survival percentage in comparison with untreated control” value is on record as “sharp decrease”, the “increase of percentage of early apoptotic cells versus untreated control” value was 8.14 fold and the “increase of percentage of late apoptotic cells versus untreated control” value is given as 43.07. The “level of caspase 3/7 percentage” value in data set [2] is on record as 10.04%. Also, in the data set on HL-60, the “cell morphology in the image” value is on record as “round, high-contrast objects”.
